Converted amounts (≈) assume the structure as drawn. Bridge positions count the residues as written; N and C are the ends. Square brackets hold non-standard residues; d marks the D form. Peptide text beside a SMILES is read from it. * marks the point of attachment. Phe(4-Br) = N[C@@H](Cc1ccc(Br)cc1)C(=O)O; Ile(3-Me) = CCC(C)(C)[C@H](N)C(=O)O; Cya = N[C@@H](CS(=O)(=O)O)C(=O)O; NMeQ = CN[C@@H](CCC(N)=O)C(=O)O; Tle = CC(C)(C)[C@H](N)C(=O)O; For = O=C*
How the values were obtained:
Bacillus subtilis = format: cell-based
Method: Bacillus subtilis: Standard spore stocks (ATCC strain 6633) were purchased from Difco (#0453-36-0). Two-fold dilutions of polydiscamide A were prepared in 50 μL volumes of a suitable solvent using 96-well microtiter plates. In a separate 96-well plate, 35 μL volumes of Mueller-Hinton broth were placed in each well. The compound (5 μL) was then transferred to the broth. An inoculum of B. subtilis in the appropriate medium was added to give a cell density of 1000 cells/mL and a total volume of 50 μL. Plates were incubated at 37° C. overnight.

[1] = test system: A549 human lung carcinoma cells; conditions: 72 h
Method: P388 murine leukemia cells obtained from Dr. J. Mayo, National Cancer Institute, Bethesda, Md., and A549 cells were obtained from the American Type Culture Collection, Rockville, Md. The P388 cells were maintained in Roswell Park Memorial Institute medium 1640 (RPMI-1640) supplemented with 10% horse serum and cultured in plastic tissue culture flasks and kept in an incubator at 37° C. in humidified air containing 5% CO2. The A549 cells were similarly maintained in RPMI-1640 but supplemented with 10% fetal bovine serum. Antibiotic-free stock cultures of P388 and A549 cells were subcultured to 10^5 cells/ml by dilutions in fresh growth medium at 2 to 5 day intervals. […]
To quantitate the effects of polydiscamide A or its analogs on cell proliferation, 75 μl warm growth medium containing 5 mg/ml MTT was added to each well. […] To spectrophotometrically quantitate formation of reduced formazan, plates were centrifuged (900 g, 5 minutes), culture fluids were removed by aspiration, and 200 μl of acidified isopropanol (2 ml concentrated HCl/L isopropanol) added per well. The absorbance of the resulting solutions was measured at 570 nm with a plate reader (MR700 Microplate Reader, Dynatech Laboratories, Chantilly, Va.).

[2] = test system: P388 murine leukemia cells; conditions: 48 h
Method: Polydiscamide A was tested for toxicity against P388 murine leukemia cells and A549 human lung carcinoma cells.
The P388 cells were maintained in Roswell Park Memorial Institute medium 1640 (RPMI-1640) supplemented with 10% horse serum and cultured in plastic tissue culture flasks and kept in an incubator at 37° C. in humidified air containing 5% CO2. The A549 cells were similarly maintained in RPMI-1640 but supplemented with 10% fetal bovine serum. Antibiotic-free stock cultures of P388 and A549 cells were subcultured to 10^5 cells/ml by dilutions in fresh growth medium at 2 to 5 day intervals. […]
To quantitate the effects of polydiscamide A or its analogs on cell proliferation, 75 μl warm growth medium containing 5 mg/ml MTT was added to each well. […] To spectrophotometrically quantitate formation of reduced formazan, plates were centrifuged (900 g, 5 minutes), culture fluids were removed by aspiration, and 200 μl of acidified isopropanol (2 ml concentrated HCl/L isopropanol) added per well. The absorbance of the resulting solutions was measured at 570 nm with a plate reader (MR700 Microplate Reader, Dynatech Laboratories, Chantilly, Va.). […]

What does the source list for `CCC(C)(C)[C@H](NC(=O)[C@@H](NC(=O)[C@@H]1CCCN1C(=O)[C@H](Cc1ccc(Br)cc1)NC(=O)[C@H](C)NC=O)C(C)(C)C)C(=O)N[C@@H](Cc1c[nH]c2ccccc12)C(=O)N[C@@H](CCCNC(=N)N)C(=O)N[C@@H](CS(=O)(=O)O)C(=O)N[C@@H]1C(=O)N(C)[C@@H](CCC(N)=O)C(=O)N[C@@H](C(C)C)C(=O)N2CCC[C@H]2C(=O)N[C@@H](CC(N)=O)C(=O)O[C@@H]1C` [polydiscamide A] (For-A[Phe(4-Br)]P[Tle][Ile(3-Me)]WR[Cya]T[NMeQ]VPN; ester 9-C)?
MIC against B. subtilis (Bacillus subtilis): 3.1 µg/mL (≈ 1.81 µM); IC50 against cultured human lung carcinoma cells (A549) [1]: 0.66 µg/mL (≈ 0.386 µM); IC50 against mouse leukemia cells (P388) [2]: 0.96 µg/mL (≈ 0.561 µM)

— patent publication US5336757A, “Antibacterial peptide and methods of use” (Harbor Branch Oceanographic Institution, Inc., priority 1992, dated 1994)
